Where two headings read alike, the source gives them in different places.
Legend:
[1] = Stability in human blood serum (radio-HPLC); assay type: in vitro ADME; conditions: 37 °C
Protocol: Ligand stability in human blood serum (n = 2) and PBS (pH = 6.5) (n = 1) was determined for different time points (2 min, 30 min, 60 min, 120 min). Therefore, approx. 5 MBq of radioligand was added to 1 mL of fresh human serum at 37 °C or PBS at rt. At each given time point 100 µL of the mixture were transferred to a 1.5 mL Eppendorf tube containing 100 µL of acetonitrile. The vial was vortexed and centrifuged for 2 min at 14,000 1/min before 100 µL of the supernatant were diluted with 200 µL of water and injected into analytical radio-HPLC. The PBS solution was directly injected into the radio-HPLC. Ligand stability was determined by integrating the areas of the signals in the radio chromatogram in relation to the signal of the intact ligand.

[2] = Protein binding in human serum (MicroSpin G-50 columns); assay type: in vitro ADME; conditions: fresh human serum, 37 °C, n=3
Protocol: Protein binding was determined for different time points (2 min, 30 min, 60 min, 120 min) in triplicates using Sephadex MicroSpin G-50 columns (GE-Healthcare, Chicago, Illinois, USA). The columns were spun initially at 20,000 rcf for 1 min to remove the storage buffer. Then approx. 5 MBq of radioligand was added to 1 mL of fresh human serum and incubated at 37 °C. At each given timepoint 25 µL of the mixture was loaded on to the column, which was then spun at 20,000 rcf for 1 min. The activity content on the column (free radioligand) and in the filtrate (protein bound fraction) was quantified in a γ-counter.

[3] = Partition coefficient logD (n-octanol/PBS); assay type: physicochemical; conditions: n=6
Protocol: For determination of logarithmic partition coefficients (logD) n-Octanol (500 µL) and PBS (500 µL) were pipetted into eight 1.5 mL Protein Low-Bind Eppendorf tubes followed by addition of 300 kBq of labelled compound. The vials were vortexed for 5 min at 1,500 1/min and then centrifuged for 5 min at 20,000 rcf (Eppendorf Centrifuge 5424). Aliquots of 100 µL were taken out of each phase and the amount of activity was quantified in a γ-counter (Perkin Elmer 2480 Wizard2 3"; Waltham, Massachusetts, USA).

[4] = Biodistribution studies in BALB/c mice; assay type: in vivo; conditions: for tissue uptake at 10 min / tissue uptake at 0.5 h / tissue uptake at 1 h: female, mouse, iv, total radioactivity, healthy BALB/c mice, 0.1 nmol i.v.; for tissue uptake at 10 min: 10 min p.i.; for tissue uptake at 0.5 h: 30 min p.i.; for tissue uptake at 1 h: 60 min p.i.
Protocol: For biodistribution studies 6-week-old female BALB/c mice (n=3) were injected with 0.1 nmol (100 µL, approx. 1 MBq) of labelled compound via the lateral tail vein and sacrificed after 10, 30, or 60 min by cervical dislocation. The mice were dissected, blood and organs (spleen, pancreas, stomach, intestine, liver, kidney, heart, lung, muscle and bone) were weighed and their activity measured in a γ-counter. For blocking experiments, mice were co-injected with 27.7 µmοl N-acetylgalactose.

[5] = BALB/c mice, comparison with ^99mTc-GSA
[6] = Blood, read-out: Biodistribution data, Blood
[7] = Femur, read-out: Biodistribution data, Femur
[8] = Heart, read-out: Biodistribution data, Heart
[9] = Intestine, read-out: Biodistribution data, Intestine
[10] = Kidneys, read-out: Biodistribution data, Kidneys
[11] = Liver, read-out: Biodistribution data, Liver
[12] = Lung, read-out: Biodistribution data, Lung
[13] = Muscle, read-out: Biodistribution data, Muscle
[14] = Pancreas, read-out: Biodistribution data, Pancreas
[15] = Spleen, read-out: Biodistribution data, Spleen
[16] = Stomach, read-out: Biodistribution data, Stomach

For `NC(=O)CNC(=O)CNC(=O)[C@H](CCCCNC(=O)CCCCc1cn(C2O[C@H](CO)[C@H](O)[C@H](O)[C@H]2O)nn1)NC(=O)CNC(=O)CNC(=O)[C@H](CCCCNC(=O)CCCCc1cn(C2O[C@H](CO)[C@H](O)[C@H](O)[C@H]2O)nn1)NC(=O)CNC(=O)CNC(=O)[C@H](CCCCNC(=O)CCCCc1cn(C2O[C@H](CO)[C@H](O)[C@H](O)[C@H]2O)nn1)NC(=O)CNC(=O)CNC(=O)[C@H](CCCCNC(=O)CCCCc1cn(C2O[C@H](CO)[C@H](O)[C@H](O)[C@H]2O)nn1)NC(=O)CNC(=O)CNC(=O)[C@H](CCCCNC(=O)CCCCc1cn(C2O[C@H](CO)[C@H](O)[C@H](O)[C@H]2O)nn1)NC(=O)CNC(=O)CNC(=O)[C@H](CCCCNC(=O)CCCCc1cn(C2O[C@H](CO)[C@H](O)[C@H](O)[C@H]2O)nn1)NC(=O)CNC(=O)CNC(=O)[C@H](CCCCNC(=O)CCCCc1cn(C2O[C@H](CO)[C@H](O)[C@H](O)[C@H]2O)nn1)NC(=O)CNC(=O)CNC(=O)[C@H](CCCCNC(=O)CCCCc1cn(C2O[C@H](CO)[C@H](O)[C@H](O)[C@H]2O)nn1)NC(=O)CNC(=O)CNC(=O)[C@H](CCCCNC(=O)CCCCc1cn(C2O[C@H](CO)[C@H](O)[C@H](O)[C@H]2O)nn1)NC(=O)CCCNC(=O)CC[C@H](C(=O)O)N1CCN(CC(=O)O)CCN(CC(=O)O)CC1` (some centres unmarked) [[68Ga]Ga-NonaLysan, metal not drawn], the remaining at 2 min ([1]; 2 min, n=2, read-out: Serum stability (% of intact ligand)) was 99.5 ± 0.1%, the remaining at 0.5 h ([1]; 30 min, n=2, read-out: Serum stability (% of intact ligand)) was 99.5 ± 0.1% and the “Serum stability (% of intact ligand)” value ([1]; 60 min, n=2) was 99.5 ± 0.1%. For the same molecule, the remaining at 2 h ([1]; 120 min, n=2, read-out: Serum stability (% of intact ligand)) was 99.6%, the fraction unbound ([2]; 2 min) was 0.847 and the fraction unbound ([2]; 30 min) was 0.717. It also gave a fraction unbound ([2]; 60 min) of 0.737, a fraction unbound ([2]; 120 min) of 0.785 and a logD [3] of -4.06 ± 0.09. For the same molecule, the “activity accumulation in the liver (in words)” value [4, 5] was “outperforms the accumulation in the liver found for the gold standard ^99mTc-GSA”, the “activity concentration in the intestine (in words)” value [4, 5] was “activity concentration is lower as found for ^99mTc-GSA” and the tissue uptake at 10 min [4, 6] was 0.43 ± 0.03 %ID/g. It also gave a tissue uptake at 0.5 h [4, 6] of 0.15 ± 0.04 %ID/g, a tissue uptake at 1 h [4, 6] of 0.22 ± 0.05 %ID/g and a tissue uptake at 10 min [4, 7] of 0.26 ± 0.02 %ID/g. The tissue uptake at 0.5 h [4, 7] was 0.26 ± 0.08 %ID/g, the tissue uptake at 1 h [4, 7] was 0.23 ± 0.01 %ID/g and the tissue uptake at 10 min [4, 8] was 0.44 ± 0.04 %ID/g. It also gave a tissue uptake at 0.5 h [4, 8] of 0.44 ± 0.04 %ID/g, a tissue uptake at 1 h [4, 8] of 0.52 ± 0.07 %ID/g and a tissue uptake at 10 min [4, 9] of 0.77 ± 0.17 %ID/g. It also gave a tissue uptake at 0.5 h [4, 9] of 5.61 ± 0.22 %ID/g, a tissue uptake at 1 h [4, 9] of 7.91 ± 0.49 %ID/g and a tissue uptake at 10 min [4, 10] of 1.16 ± 0.12 %ID/g. It also gave a tissue uptake at 0.5 h [4, 10] of 0.83 ± 0.03 %ID/g, a tissue uptake at 1 h [4, 10] of 0.99 ± 0.15 %ID/g and a tissue uptake at 10 min [4, 11] of 71.23 ± 0.43 %ID/g. It also gave a tissue uptake at 0.5 h [4, 11] of 79.6 ± 7.96 %ID/g, a tissue uptake at 1 h [4, 11] of 69.6 ± 0.98 %ID/g and a tissue uptake at 10 min [4, 12] of 0.85 ± 0.1 %ID/g. It also gave a tissue uptake at 0.5 h [4, 12] of 0.7 ± 0.08 %ID/g, a tissue uptake at 1 h [4, 12] of 0.92 ± 0.1 %ID/g and a tissue uptake at 10 min [4, 13] of 0.61 ± 0.07 %ID/g. For the same molecule, the tissue uptake at 0.5 h [4, 13] was 0.66 ± 0.03 %ID/g, the tissue uptake at 1 h [4, 13] was 0.59 ± 0.09 %ID/g and the tissue uptake at 10 min [4, 14] was 0.75 ± 0.07 %ID/g. It also gave a tissue uptake at 0.5 h [4, 14] of 0.91 ± 0.05 %ID/g, a tissue uptake at 1 h [4, 14] of 1.16 ± 0.19 %ID/g and a tissue uptake at 10 min [4, 15] of 0.57 ± 0.16 %ID/g. The tissue uptake at 0.5 h [4, 15] was 0.17 ± 0.03 %ID/g, the tissue uptake at 1 h [4, 15] was 0.49 ± 0.03 %ID/g and the tissue uptake at 10 min [4, 16] was 0.73 ± 0.16 %ID/g. It also gave a tissue uptake at 0.5 h [4, 16] of 1.15 ± 0.44 %ID/g and a tissue uptake at 1 h [4, 16] of 1.78 ± 0.98 %ID/g.
